Measurements reported in patent publication US9382330B2, “Pdia4, target of cytopiloyne derivatives, for tumor diagnosis and treatment” (ACADEMIA SINICA, priority 2010, dated 2016).
Entries after “also recorded” stand apart in the source; their conditions may differ. Like-named read-outs stand apart in the source and are kept apart here.

Legend:
[1] = test system: human umbilical vein endothelial cells; conditions: cited from earlier work
GST-Pdia4 [2] = biological target: T1, GST-Pdia4 (Homo sapiens, UniProt P13667); assay: Disulfide isomerase activity of GST-Pdia4 with reduced BPTI; type: biochemical; conditions: reduced BPTI substrate, redox buffer
T1 construct: made in house; host or cells: E. coli BL21 DE3 pLysS
T1 sequence (P13667 21-645): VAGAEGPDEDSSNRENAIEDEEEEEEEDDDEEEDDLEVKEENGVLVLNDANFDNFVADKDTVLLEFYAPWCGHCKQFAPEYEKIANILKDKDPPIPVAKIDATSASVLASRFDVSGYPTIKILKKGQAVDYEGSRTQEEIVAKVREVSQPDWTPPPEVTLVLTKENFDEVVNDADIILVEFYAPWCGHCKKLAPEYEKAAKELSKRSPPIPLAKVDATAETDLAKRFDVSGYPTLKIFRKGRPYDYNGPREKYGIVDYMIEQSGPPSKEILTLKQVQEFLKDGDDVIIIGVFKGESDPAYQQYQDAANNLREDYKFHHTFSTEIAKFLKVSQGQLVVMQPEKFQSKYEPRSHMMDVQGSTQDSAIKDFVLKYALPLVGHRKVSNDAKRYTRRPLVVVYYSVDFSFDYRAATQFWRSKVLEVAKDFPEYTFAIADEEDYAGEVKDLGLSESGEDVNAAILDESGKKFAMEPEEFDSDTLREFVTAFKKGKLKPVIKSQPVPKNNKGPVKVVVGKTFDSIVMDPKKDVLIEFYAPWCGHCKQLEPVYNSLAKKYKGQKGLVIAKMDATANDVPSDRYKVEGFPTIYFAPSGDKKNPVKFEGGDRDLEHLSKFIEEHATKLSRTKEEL
Method: (§1) pGEX4T3-Hspa5, pGEX4T3-Pdia4, and pGEX4T3-TecSH3 were obtained by cloning human Hspa5 cDNA, human Pdia4 cDNA and the SH3 domain of mouse Tec cDNA to a pGEX4T3 vector, respectively. GST fusion proteins were purified from the bacterial host E. coli BL21 DE3 pLysS, which harbored the above constructs, according to the manufacturer's instructions (Amersham Biosciences, NJ, USA). Glutathione agarose bead-bound GST fusion proteins (0.15 μg) were incubated with DMSO vehicle or BCP (0.026 μg) for overnight. The proteins were separated by SDS-PAGE and blotted with avidin-POD. For competition assays, CP (0.16 μg (10-fold) and 0.81 μm (50-fold)) or CPA (0.09 μg (10-fold) and 0.45 μm (50-fold)) was added to the above incubation. For interference assay, 2-mercaptoethanol (2.2 mg) was added to the incubation. To test effect of CPA on disulfide isomerase activity of GST-Pdia4, reduced BPTI (0.39 μg) was incubated with redox buffer in the presence of vehicle, 5.64 μg GST-Pdia4 or 5.64 μg GST-Pdia4 plus CPA (0.33 μg). Enzymatic activity of GST-Pdia4, shown as fraction remaining (%), was determined by the conversion of the reduced BPTI into disulfide intermediates as described (Satoh, M., et al. (2005) Cell Stress Chap. 10(3), 211-220).

GST-Pdia4 [3] = biological target: T1, GST-Pdia4; assay: MS/MS analysis of GST-Pdia4/CPA adduct; type: binding; conditions: 24 hours, LC/MS/MS
Method: Band 1 were cut from the coomassie blue gel and subjected to in gel digestion. Briefly, the gel was dehydrated with acetonitrile, vacuum dried, and rehydrated with ammonium bicarbonate at 37° C. for 1 hour. After alkylation with iodoacetamide, the gel was suspended with 25 mM ammonium bicarbonate containing trypsin at 37° C. for 16 hours. Tryptic peptides were analyzed with LC-nanoESI-MS/MS system. Briefly, the peptides were trapped and desalted isocratically on an LC-Packings PepMap™ C18 μ-Precolumn™ Cartidge (300 μm i.d.×5 mm; Dionex, Calif., USA) for 2 minutes with 0.1% formic acid. The peptides were separated on a C18 capillary column (15 cm×75 μm i.d.) packed with 5 μm, Zorbax 300 SB C18 paticles (Micro-Tech Scientific, Calif., USA), eluted using a 40 minute fast gradient of 5% to 80% acetonitrile containing 0.1% formic acid and subjected to Micromass Q-TOF Ultima™ API mass spectrometer, equipped with an ESI source. After data acquisition, MS/MS spectra for the sample were combined and querred against non-redundant protein database using Mascot program (Matrix Science, MA, USA). For MS/MS analysis of GST-Pdia4 and GST-Pdia4/CPA adduct, GST-Pdia4 (200 μg) was incubated with DMSO or CPA (24 μg) for 24 hours. The proteins underwent LC/MS/MS analysis.

GST-Pdia4 [4] = biological target: T1, GST-Pdia4; assay: Competition assay for binding of GST-Pdia4 and BCP; conditions: 10-fold and 50-fold excess
Method: as §1

Jurkat cells [5] = assay: WST-1 assay (cell viability / growth inhibition); type: cell-based, human; conditions: WST-1, 24 hour incubation
Method: WST-1 assays were performed to measure cell viability. Briefly, Jurkat cells (5×10^3) were grown in 100 μl per well. After 24 hour incubation with DMSO or CP derivatives, the cells were incubated with WST-1 at 37° C. for 30 minutes and characterized by 440 nm absorption. To stain BCP-bound proteins of Jurkat cells, 30 μM of DMSO, biotin and BCP was incubated with Jurkat cells for 24 hours, respectively. After washing, the cells underwent surface or intracellular staining with avidin-PE-TR (Caltag, Calif., USA), followed by fluorescence activated cell sorting (FACS) analysis. The FACS data were processed using FCS express 3.0 software (De Novo Inc, CA, USA).

Jurkat cells [6] = assay: AFSE cell proliferation assay (FACS); type: cell-based, human; conditions: low doses, up to 6 days
Method: (§2) FIGS. 1A-C Effect of cytopiloyne (CP) and cytopiloyne aglycone (CPA) on cell growth, death and proliferation. FIG. 1A-B are graphs showing effects of CP and CPA on growth and death of Jurkat cells. Jurkat cells were grown in RPMI medium in the presence of DMSO (−), CP and CPA at the indicated concentrations for 6 days. Numbers of living cells (FIG. 1A) and dead cells (FIG. 1B) were counted by using eosin Y and hematocytometer. Growth (%) is defined as 100% multiplied by the ratio of the living cell number with compound treatment to that with the control treatment. Death (%) is defined as 100% multiplied by the ratio of the dead cell number to a total of cells (both living and dead). FIG. 1C is a graph showing effect of CP and CPA on proliferation of Jurkat cells. Jurkat cells, which were already labeled with AFSE, were grown under the same condition as the Jurkat cells shown in FIGS. 1A-B. Mean fluorescent intensity (MFI) of the cells on days 0, 2, 4 and 6 were determined using FACS.
Jurkat cells were infected with different lentiviral particles 2 days prior to use. […] One aliquot was tested for cell growth for 6 days and the number of live and dead cells was calculated using eosin Y. Another aliquot was stained with AFSE, monitored for cell proliferation for 6 days and followed byFACS analysis. […] Tumor incidence, tumor size and survival rate of the tumor-bearing mice were scored.

[7] = test system: TS/A, mammary gland carcinoma; assay: Cell death of TS/A mammary gland carcinoma; type: cell-based
Jurkat cells [8] = assay: Cell growth and death by counting living and dead cells with eosin Y; type: cell-based; conditions: for Jurkat cell growth: indicated concentrations, 6 days
Method: as §2
Jurkat cells were infected with different lentiviral particles 2 days prior to use. The cells were divided into 3 aliquots. One aliquot was tested for cell growth for 6 days and the number of live and dead cells was calculated using eosin Y. Another aliquot was stained with AFSE, monitored for cell proliferation for 6 days and followed byFACS analysis. Another aliquot was pulsed with 5-bromo-2-deoxyuridine (BrdU) for 30 minutes and chased for 0 to 48 hours. The cells underwent intracellular staining with anti-BrdU antibody and FACS analysis. The other aliquot was tested for caspase activity. Caspase 3/7 fluorescent substrate was incubated with 1 μg of total lysate and caspase activity, shown in relative light unit (RLU), was measured with Victor V luminescence counter. To evaluate in vivo tumor growth, lentivirally infected Jurkat cells (1×10^6) were subcutaneously inoculated into scid/beige mice. Tumor incidence, tumor size and survival rate of the tumor-bearing mice were scored.

T cell = conditions: cited from earlier work
tumor cell = conditions: cited from earlier work
GST-Pdia4 [9] = biological target: T1, GST-Pdia4; assay: Pull down assay of GST fusion proteins with BCP (avidin-POD blot); type: binding; conditions: 2-mercaptoethanol added to the incubation
Method: as §1

In the case of `CC#CC#CC#CC#CCCC(O)CO` (centres unmarked) [CPA, cytopiloyne aglycone], the “cell death of human umbilical vein endothelial cells” value [1] is given as “promoted cell death”, the “disulfide isomerase activity of GST-Pdia4” value (GST-Pdia4 [2]) is given as “inhibited this activity” and the “covalent adduct of CPA on GST-Pdia4” value (GST-Pdia4 [3]) is given as “adducted to two cysteine residues of the second CGHC motif of Pdia4”. For the same compound, the “interference with interaction between BCP and GST-Pdia4” value (GST-Pdia4 [4]) was “could interfere with the interaction between BCP and GST-Pdia4 at a dose-dependent manner; also recorded: more effective for the interference than CP”, the “half maximal inhibitory concentration (IC50) for growth inhibition of Jurkat cells” value (Jurkat cells [5]) was 2.5 µg/mL and the Jurkat cell proliferation (Jurkat cells [6]) was “significantly suppressed Jurkat cell proliferation”. The “cell death of TS/A” value [7] was “induce cell death”, the “cytotoxicity at low doses” value (Jurkat cells [8]; CPA from 0.7 to 1.3 μg/ml) was “did not show significant cytotocxicity” and the Jurkat cell growth (Jurkat cells [8]) was “inhibited Jurkat cell growth in a dose-dependent manner”.

In the case of `CC#CC#CC#CC#CCCC(CO)O[C@@H]1O[C@H](CO)[C@@H](O)[C@H](O)[C@H]1O` (some centres unmarked) [CP, cytopiloyne], the T cell proliferation (T cell) is listed as “showed an inhibition of T cell proliferation”, the “interference with interaction between BCP and GST-Pdia4” value (GST-Pdia4 [4]) is listed as “could interfere with the interaction between BCP and GST-Pdia4 at a dose-dependent manner” and the “half maximal inhibitory concentration (IC50) for growth inhibition of Jurkat cells” value (Jurkat cells [5]) is listed as 52.8 µg/mL. The Jurkat cell proliferation (Jurkat cells [6]) was “significantly suppressed Jurkat cell proliferation”, the “cytotoxicity at low doses” value (Jurkat cells [8]) was “did not show significant cytotocxicity” and the Jurkat cell growth (Jurkat cells [8]) was “inhibited Jurkat cell growth in a dose-dependent manner”.

For bacitricin, the tumor cell death (tumor cell) is given as “cause tumor cell death”.

In the case of `OCCS` [2-mercaptoethanol], the “interference of GST-Pdia4/BCP interaction by reducing agent” value (GST-Pdia4 [9]) is reported as “significantly diminished the interplay of GST-Pdia4 and BCP”.
